# In patent US20100311877A1, “NOVEL TRIAZINE DERIVATIVE, ULTRAVIOLET ABSORBER, AND RESIN COMPOSITION” (FUJIFILM Corporation, priority 2009, published 2010):
# What was measured:
# [1] = Light resistance of PMMA polymer film (remaining amount after metal halide lamp exposure); format: physicochemical; details: 50-μm PMMA film on glass, 0.2 mass % compound in coating solution, illuminance 90 mW/cm^2, 63° C., humidity 50%, 400 hours after exposure, transmittance at maximum absorption wavelength
# Protocol: A binder solution was prepared by dissolving 22 mass % of a PMMA resin (“[…] BR-80”, trade name; product of Mitsubishi Rayon) in methylene chloride. A coating solution was then prepared by dissolving 0.2 mass % of Exemplified compound (1) in the resulting binder solution. Using glass as a base material, the resulting coating solution was applied thereto with a 200 μm blade and dried at 100° C. for 10 minutes into a 50-μm thick coating to prepare a film. […] The absorbance of the film was measured with a spectrophotometer “UV-3600” (trade name; product of Shimadzu Corp). The film was exposed to light of a metal halide lamp (“Eye super UV tester”, trade name; product of Iwasaki Electric) under the conditions of illuminance of 90 mW/cm^2, temperature of 63° C., and humidity of 50%. The remaining amount of each compound 400 hours after exposure was measured. The remaining amount was computed in accordance with the following equation: Remaining amount(%)=100×(100-(transmittance after exposure))/(100-(transmittance before exposure)) The transmittance is a value measured at the maximum absorption wavelength of each compound.
# [2] = Measurement of pKa (perchloric acid titration, absorption spectrum); format: physicochemical; details: in acetonitrile, 70% perchloric acid (acetic acid as solvent) added dropwise; ratio of triazine-free compound and proton adduct from absorbance at λmax
# Protocol: Exemplified compound (1) was dissolved in acetonitrile to give its absorption coefficient of 1. […] At that time, a solution absorption spectrum was measured and a ratio of a triazine-free compound and a proton adduct at each pH was computed from the absorbance at λmax. The value of pKa was determined from a point at which the ratio became 1. […] The absorption spectrum was measured using a spectrophotometer “UV-3600” (trade name; product of Shimadzu Corp), while pH was measured using a pH meter “H[…]” (trade name; product of Toa Denpa Kogyo).
Compound,Remaining amount (%) [1] [%],pKa [2]
CCCCCCOc1ccc(-c2nc(-c3ccccc3)nc(-c3ccccc3)n2)c(O)c1 [Comparative compound A],63,-4.9
CCCCCCCCOc1ccc(-c2nc(-c3ccc(C)cc3C)nc(-c3ccc(C)cc3C)n2)c(O)c1 [Comparative compound B],21,-4.4
